Positions of bridges follow the written chain, without caps; N, C: chain ends. Non-standard residues stand in square brackets, D forms with d. Residues, ends and D or L forms follow the SMILES beside them. *: point of attachment. X1 = O=C(O)CCCCCCCCCCCCCCC(=O)N[C@@H](CCCCN*)C(=O)O; Trp(7-Me) = Cc1cccc2c(C[C@H](N)C(=O)O)c[nH]c12; 2Nal = N[C@@H](Cc1ccc2ccccc2c1)C(=O)O; AEF = NCCOc1ccc(C[C@H](N)C(=O)O)cc1; 3Pal = N[C@@H](Cc1cccnc1)C(=O)O; Pen = CC(C)(S)[C@H](N)C(=O)O; Thp = NC1(C(=O)O)CCOCC1; AEEA = NCCOCCOCC(=O)O; Sar = CNCC(=O)O
Legend:
[1] = target: T1, IL-23R (Homo sapiens, UniProt Q5VWK5); assay: IL23R Reporter Assay; format: cell-based
T1 construct: HEK293 cells containing IL-23R, IL-12RP31 and a firefly luciferase reporter gene driven by a STAT-inducible promoter (Promega); host or cells: HEK293
T1 sequence (Q5VWK5 24-629): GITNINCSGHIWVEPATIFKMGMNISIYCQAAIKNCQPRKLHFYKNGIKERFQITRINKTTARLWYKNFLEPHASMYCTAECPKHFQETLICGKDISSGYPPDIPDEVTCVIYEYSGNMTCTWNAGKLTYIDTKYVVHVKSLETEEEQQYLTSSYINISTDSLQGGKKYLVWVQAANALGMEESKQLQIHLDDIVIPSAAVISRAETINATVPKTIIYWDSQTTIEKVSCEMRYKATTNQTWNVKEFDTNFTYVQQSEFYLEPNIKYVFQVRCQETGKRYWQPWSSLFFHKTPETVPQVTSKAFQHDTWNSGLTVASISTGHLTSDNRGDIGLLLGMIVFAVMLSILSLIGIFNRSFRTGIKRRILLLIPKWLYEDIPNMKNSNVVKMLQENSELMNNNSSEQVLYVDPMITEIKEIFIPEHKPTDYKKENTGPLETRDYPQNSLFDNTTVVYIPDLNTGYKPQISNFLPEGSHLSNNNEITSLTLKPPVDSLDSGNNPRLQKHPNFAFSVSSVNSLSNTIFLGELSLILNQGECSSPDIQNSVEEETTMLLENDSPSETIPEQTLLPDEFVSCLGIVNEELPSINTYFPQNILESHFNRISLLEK
How it was run: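 Reporter cells read out IL-23-driven STAT3 activation; compounds were serially diluted in DMSO. After 5 h at 37 °C, 5% CO2, cells were brought to 20 °C and luminescence was measured with BioGlo reagent.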

[2] = from Ac-Pen-Asn-Thr-7MeTrp-Lys(Ac)-Pen-AEF-2Nal-THP-Lys(Ac)-Asn-3Pya-Sar-PEG2-PEG2-eLys(C16OH)-OH; disulfide bond; 20-membered ring; I2/AcOH; ACN/H2O; […]
[3] = target: T2, peripheral blood mononuclear cells (PBMCs) (Homo sapiens, UniProt Q5VWK5); assay: PBMC pSTAT3 assay; format: cell-based; details: PBMCs from healthy donors, anti-CD3/IL-1β cultured; peptide 30 min, then IL-23 5 ng/mL for 30 min; phosphorylated STAT3 (Meso Scale Discovery)
T2 sequence (Q5VWK5 24-629): T1 sequence (Q5VWK5 24-629)
Text: IL-23 binding to IL-23 receptors results in the activation of the Signal Transducer and Activator of Transcription 3 (STAT3) by phosphorylation and downstream signaling events. Accordingly. the ability of the inhibitors described herein to block IL-23 action can be assessed by monitoring the status of STAT3 activation in response to IL-23. This may be accomplished in reporter cell assays or in intact cells such as peripheral blood mononuclear cells (PBMCs).

SMILES: CC(=O)NCCCC[C@@H]1NC(=O)[C@H](Cc2c[nH]c3c(C)cccc23)NC(=O)[C@H]([C@@H](C)O)NC(=O)[C@H](CC(N)=O)NC(=O)[C@@H](NC(C)=O)C(C)(C)SSC(C)(C)[C@@H](C(=O)N[C@@H](Cc2ccc(OCCN)cc2)C(=O)N[C@@H](Cc2ccc3ccccc3c2)C(=O)NC2(C(=O)N[C@@H](CCCCNC(C)=O)C(=O)N[C@@H](CC(N)=O)C(=O)N[C@@H](Cc3cccnc3)C(=O)N(C)CC(=O)NCCOCCOCC(=O)NCCOCCOCC(=O)NCCCC[C@H](NC(=O)CCCCCCCCCCCCCCC(=O)O)C(=O)O)CCOCC2)NC1=O [Example 8, MeCO-Pen*-N-T-7MeW-K(Ac)-Pen*-AEF-2Nal-THP—K(Ac)-N— 3Pva-Sar-PEG2-PEG2-eK(C160H)-COOH (*Pen-Pen form disulfide bond)] (Ac-[Pen]NT[Trp(7-Me)]K(Ac)[Pen][AEF][2Nal][Thp]K(Ac)N[3Pal][Sar][AEEA][AEEA]-X1; disulfide 1-6)
- IC50 [1]: 0.089 nM
- ring closure, yield after HPLC [2]: 7%
- IC50 [3]: 0.21 nM
